Data reported in US5576324A, “Quinoline derivatives or salt thereof and remedy for cardiac diseases containing the same” (Kowa Co., Ltd., priority 1992, dated 1996).
Counter-ions that a name gives are not always drawn.

Experiments:
[1] = system: Guinea Pig Atrium (left atrium contraction); experiment: Inotropic action on guinea pig atrium samples; conditions: Cavia porcellus, 10^-7 M, 1 Hz, 32° C., read-out: Increment of Contraction of the left atrium
Procedure: Inotropic Action and Action Against Time-dependent Action on Guinea Pig Atrium Samples
Guinea pigs were smashed at the head, and were exsanguinated through a cut in the carotid artery. Their hearts were taken out. From each heart, the right and left atria were obtained. The atria were suspended in Krebs-Henzereit solution at 32° C. through which a gas containing 95% oxygen and 5% carbon dioxide was passed. The tensile strength was measured with a strain gauge, and was amplified and recorded. Beats of right atria were counted using a tachometer, and the counts were regarded as the cardiac rate. Electric pulses (1 Hz, 5 msec) having twice the magnitude of the threshold were applied onto the left atria. The samples were given to […] in an accumulative manner at intervals of 5 minutes.
The results are expressed by the increment of contraction of the left atrium when 10^-7 M of a sample was administered.

[2] = system: Mouse Arrhythmia Induced by Chloroform (ventricular fibrillation); experiment: Action on Mouse Arrhythmia Induced by Chloroform; type: in vivo; conditions: 100 mg/kg given to mice, 20 min before chloroform
Procedure: Action on Mouse Arrhythmia Induced by Chloroform
Test compounds (100 mg/kg) were given to mice, and 20 minutes thereafter, the mice were confined in a pot filled with chloroform. Upon respiratory stoppage, the mice were immediately taken out of the pot, and electrocardiodiagram (lead II) was recorded to obtain ventricular tachycardia, ventricular fibrillation, and period until the cardiac arrest.

[3] = system: Blood Flow of a Hind Leg of Anesthetic Dog; experiment: Action on the Blood Flow of a Hind Leg of Anesthetic Dog; type: in vivo; conditions: Canis lupus familiaris; 100 μg into femoral artery, anesthetized dog; read-out: Increment of Blood Flow
Procedure: Action on the Blood Flow of a Hind Leg of Anesthetic Dog
Adult crossbred dogs were put under anesthesia with pentobarbital-Na (30 mg/kg) by intravenous injection, Heparin was administered to each dog, and an extracorporeal circulation circuit was established in the femoral artery, The blood flow in the hind leg was measured with an electromagnetic hemodromometer placed on the circuit, The samples were administered at a dose of 100 μg into the feromal artery through a rubber tube provided on the circuit.

| SMILES | activation at 0.1 µM [1] | % Inhibition of ventricular fibrillation [2] | change in vivo at 0.1 mg [3] |
| --- | --- | --- | --- |
| Cc1cc2c(c3ccc(=O)[nH]c13)OC(CN)C2C (stereo not drawn) [Example 13, (2RS, 3SR)-2-Aminomethyl-3,5-dimethyl-2,3,6,7-tetrahydrofuro[2,3-f]quinoline-7-one.HCl] | 31.8% |  |  |
| Cc1cc2c(c3ccc(=O)[nH]c13)OC(C)(CN)C2 (stereo not drawn) [Example 20] |  | 100% |  |
| Cc1cc2c(c3c1NC(=O)CC3)OC(C)(CN)C2 (stereo not drawn) [Example 21] |  |  | 35.7% |
| Cc1cc2c(c3ccc(=O)[nH]c13)OC(C)(CN)C2(C)C (stereo not drawn) [Example 22] |  | 90% |  |
| NCC1Cc2c(ccc3[nH]c(=O)ccc23)O1 (stereo not drawn) [Example 50, 2-Aminomethyl-1,2,6,7-tetrahydrofuro[3,2-f]quinoline-7-one] | 11.1% |  | 26.7% |
| CCN(CC)CC1Cc2cc(C)c3c(c2O1)CCC(=O)N3 (stereo not drawn) [Example 77] |  | 100% |  |
| Cc1cc2c(c3ccc(=O)[nH]c13)OC(CN1CCCCC1)C2 (stereo not drawn) [Example 82] |  |  | 31% |
| CCCCNCC1Cc2cc(C)c3[nH]c(=O)ccc3c2O1 (stereo not drawn) [Example 94, 2-(n-butylamino)methyl-5-methyl-2,3,6,7-tetrahydrofuro[2,3-f]quinoline-7-one.HCl] |  | 100% |  |
| COc1ccc(CCNCC2Cc3cc(C)c4[nH]c(=O)ccc4c3O2)cc1OC (stereo not drawn) [Example 99] |  |  | 97% |
| CC(=O)OCC1Cc2cc(C)c3[nH]c(=O)ccc3c2O1 (stereo not drawn) [Example 103, 2-Acetoxymethyl-5-methyl-2,3,6,7-tetrahydrofuro-[2,3-f]quinoline-7-one] | 13.1% |  | 66.7% |
| Cc1cc2c(c3ccc(=O)[nH]c13)OC(CI)C2 (stereo not drawn) [Example 106, 2-Iodomethyl-5-methyl-2,3,6,7-tetrahydrofuro-[2,3-f]quinoline-7-one] | 46.8% |  | 39.5% |
| Cc1cc2c(c3ccc(=O)[nH]c13)OC(CF)C2 (stereo not drawn) [Example 107, 2-Fluoromethyl-5-methyl-2,3,6,7-tetrahydrofuro-[2,3-f]quinoline-7-one] |  |  | 54.1% |
| Cc1cc2c(c3c1NC(=O)CC3)OC(CF)C2 (stereo not drawn) [Example 108] |  |  | 54.8% |
| COCC1Cc2cc(C)c3[nH]c(=O)ccc3c2O1 (stereo not drawn) [Example 109] | 20.3% |  |  |
| Cc1cc2c(c3c1NC(=O)CC3)OC(CNS(C)(=O)=O)C2 (stereo not drawn) [Example 114] | 18.8% |  |  |
| NCC1Cc2cc(Cl)c3[nH]c(=O)ccc3c2O1 (stereo not drawn) [Example 120, 2-Aminomethyl-5-chloro-2,3,6,7-tetrahydrofuro[2,3-f]quinoline-7-one.HCl] |  | 90% | 110% |
| NCC1Cc2cc(Cl)c3c(c2O1)CCC(=O)N3 (stereo not drawn) [Example 121] |  | 100% |  |
